Tests used:
[1] = system: Mycobacterium tuberculosis; assay: Antimycobacterial activity against Mycobacterium tuberculosis H37Rv assessed as growth inhibition in presence of 7H9 nutrient-rich media; assay type: functional
[2] = molecular target: T1, 1-deoxy-D-xylulose 5-phosphate reductoisomerase (Mycobacterium tuberculosis) (UniProt P9WNS1); assay: Inhibition of Mycobacterium tuberculosis Dxr at 100 uM
T1 sequence (whole entry): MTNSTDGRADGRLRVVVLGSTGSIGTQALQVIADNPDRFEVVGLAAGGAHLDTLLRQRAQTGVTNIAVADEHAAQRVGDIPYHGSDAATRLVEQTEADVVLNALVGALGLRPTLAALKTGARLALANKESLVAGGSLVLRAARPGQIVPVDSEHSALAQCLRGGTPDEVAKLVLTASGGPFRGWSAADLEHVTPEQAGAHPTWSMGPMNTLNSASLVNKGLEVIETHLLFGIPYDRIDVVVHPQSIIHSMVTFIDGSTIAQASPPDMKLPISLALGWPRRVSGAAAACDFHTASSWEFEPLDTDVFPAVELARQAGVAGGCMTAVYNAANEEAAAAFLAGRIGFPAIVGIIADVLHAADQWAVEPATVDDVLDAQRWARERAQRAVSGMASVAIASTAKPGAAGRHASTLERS

[3] = system: Mycobacterium tuberculosis; assay: Antimycobacterial activity against Mycobacterium tuberculosis H37Rv assessed as growth inhibition in presence of GAST minimal media; assay type: functional
[4] = molecular target: T2, 1-deoxy-D-xylulose 5-phosphate reductoisomerase (Mycobacterium tuberculosis, UniProt P9WNS1); assay: Inhibition of Mycobacterium tuberculosis Dxr
T2 sequence (P9WNS1 whole entry): T1 sequence (whole entry)

CCOP(=O)(CCN(O)C=O)OCC
MIC [1]: > 500 µg/mL

CC(=O)N(O)CCCCCP(=O)([O-])O.[Na+]
inhibition [2]: 86%
MIC [3]: > 200 µg/mL
MIC [1]: > 200 µg/mL

CCOP(=O)(CCCCCN(O)C(C)=O)OCC
MIC [3]: 200 µg/mL
MIC [1]: > 200 µg/mL

CCOP(=O)(CCCCN(O)C(C)=O)OCC
MIC [3]: 75 µg/mL
MIC [1]: > 200 µg/mL

CCOP(=O)(/C=C/CN(O)C(C)=O)OCC
MIC [3]: 150 µg/mL
MIC [1]: > 200 µg/mL

CC(=O)N(O)CCCP(=O)(O)O [FR-900098]
IC50 [4]: 2.39 µM

CC(=O)N(O)CCCCP(=O)([O-])O.[Na+]
inhibition [2]: 80%
MIC [3]: > 200 µg/mL
MIC [1]: > 200 µg/mL

CCOP(=O)(CCN(O)C(C)=O)OCC
MIC [1]: > 500 µg/mL

CC(=O)N(O)C/C=C/P(=O)([O-])O.[Na+]
IC50 [4]: 1.07 µM
MIC [3]: 150 µg/mL
MIC [1]: > 200 µg/mL

CC(=O)N(O)CCCCP(=O)(OCOC(=O)C(C)(C)C)OCOC(=O)C(C)(C)C
MIC [3]: 150 µg/mL
MIC [1]: ≥ 200 µg/mL

CC(=O)N(O)CCP(=O)([O-])O.[Na+]
inhibition [2]: 74%
MIC [3]: 150 µg/mL
MIC [1]: > 200 µg/mL

CC(=O)N(O)C/C=C/P(=O)(OCOC(=O)C(C)(C)C)OCOC(=O)C(C)(C)C
MIC [3]: 12.5 µg/mL
MIC [1]: 9.4 µg/mL
